Measurements published in US20100267743A1, “3-(PHENOXYPYRROLIDIN-3-YL-METHYL)HETEROARYL, 3-(PHENYLPYRROLIDIN-3-YLMETHOXY)HETEROARYL, AND 3-(HETEROARYLPYRROLIDIN-3-YLMETHOXY)HETEROARYL COMPOUNDS” (priority 2009, published 2010).

Columns and labels:
[1] = target: NET (Homo sapiens, UniProt P23975); test: hNET radioligand binding assay (3H-nisoxetine); set-up: expressed in transfected cells; host or cells: HEK-293; conditions: hNET membranes (HEK-293), 1.0 nM 3H-nisoxetine; for Ki: read-out: NET pKi (converted)
Method in brief: (§1)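 Membranes came from HEK-293 cells stably expressing hSERT (0.5 μg protein) or hNET (1 μg), with 3H-citalopram or 3H-nisoxetine respectively. Incubation was 60 min at 22° C in Tris buffer with 120 mM NaCl and 5 mM KCl, pH 7.4, followed by filtration and scintillation counting. pKi was derived by Cheng-Prusoff from IC50 and saturation-derived Kd.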

[2] = target: SERT (Homo sapiens, UniProt P31645); test: hSERT radioligand binding assay (3H-citalopram); set-up: expressed in transfected cells; host or cells: HEK-293; conditions: hSERT membranes (HEK-293), 1.0 nM 3H-citalopram; for Ki: read-out: SERT pKi (converted)
Method in brief: as §1

Sequence of NET (P23975 whole entry): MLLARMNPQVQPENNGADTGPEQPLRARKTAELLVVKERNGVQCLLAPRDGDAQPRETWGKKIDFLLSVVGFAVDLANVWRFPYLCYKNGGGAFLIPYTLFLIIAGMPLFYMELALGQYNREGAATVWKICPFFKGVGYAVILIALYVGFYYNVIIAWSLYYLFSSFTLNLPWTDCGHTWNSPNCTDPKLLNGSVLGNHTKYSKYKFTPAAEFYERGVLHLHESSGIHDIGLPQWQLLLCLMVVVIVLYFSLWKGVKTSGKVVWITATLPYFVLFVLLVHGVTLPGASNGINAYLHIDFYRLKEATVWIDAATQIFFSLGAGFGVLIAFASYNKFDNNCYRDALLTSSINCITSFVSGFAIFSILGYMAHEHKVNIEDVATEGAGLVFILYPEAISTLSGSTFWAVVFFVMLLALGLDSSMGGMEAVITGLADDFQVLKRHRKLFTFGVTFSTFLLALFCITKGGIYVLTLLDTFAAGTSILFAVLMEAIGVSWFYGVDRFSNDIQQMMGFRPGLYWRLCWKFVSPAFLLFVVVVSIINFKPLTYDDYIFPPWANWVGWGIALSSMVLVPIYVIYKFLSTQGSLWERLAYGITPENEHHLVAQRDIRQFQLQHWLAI
Sequence of SERT (P31645 whole entry): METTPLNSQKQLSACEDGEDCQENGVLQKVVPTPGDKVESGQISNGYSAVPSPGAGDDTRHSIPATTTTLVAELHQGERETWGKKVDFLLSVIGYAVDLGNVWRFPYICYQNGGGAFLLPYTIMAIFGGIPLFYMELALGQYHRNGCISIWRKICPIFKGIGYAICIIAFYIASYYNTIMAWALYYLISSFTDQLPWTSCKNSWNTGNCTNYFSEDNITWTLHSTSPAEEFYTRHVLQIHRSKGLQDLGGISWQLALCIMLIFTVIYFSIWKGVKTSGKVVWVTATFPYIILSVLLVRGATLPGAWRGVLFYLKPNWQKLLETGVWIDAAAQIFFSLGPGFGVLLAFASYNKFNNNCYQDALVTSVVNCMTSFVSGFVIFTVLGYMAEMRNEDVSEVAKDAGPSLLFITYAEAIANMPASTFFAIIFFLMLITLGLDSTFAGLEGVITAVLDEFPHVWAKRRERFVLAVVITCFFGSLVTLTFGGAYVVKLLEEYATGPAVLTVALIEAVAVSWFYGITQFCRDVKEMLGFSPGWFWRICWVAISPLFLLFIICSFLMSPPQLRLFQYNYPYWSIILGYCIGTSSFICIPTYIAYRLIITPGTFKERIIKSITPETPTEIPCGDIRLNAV

SMILES | NET pKi [1] | SERT pKi [2] | Ki [1] [nM] | Ki [2] [nM]
Fc1cc(Cl)ccc1O[C@H](c1nccs1)[C@H]1CCNC1 [Example 5-33] | ≧7.0 | ≧7.0 |  | 
O=C(O)C(F)(F)F.c1ccc(-c2ccccc2O[C@@H](c2ncco2)[C@H]2CCNC2)cc1 [6-42] | ≧7.0 | ≧5.0 |  | 
COc1cc(F)c(O[C@@H](c2nccs2)[C@H]2CCNC2)c(F)c1 [Example 5-28] | ≧5.0 | ≧7.0 |  | 
Clc1cc(Cl)cc(O[C@H](c2cncc(Cl)c2)[C@H]2CCNC2)c1 [Example 2-16, 3-Chloro-5-[(S)-(3,5-dichlorophenoxy)-(S)-pyrrolidin-3-yl-methyl]pyridine] |  |  | ≤ 100 | ≤ 100
c1ccc(C(Oc2cccc3ccccc23)C2CCNC2)cc1 (centres unmarked) [21-1] |  |  | ≤ 100 | ≤ 100
Fc1cc(F)c(OC(c2nccs2)C2CCNC2)c(F)c1.O=C(O)C(F)(F)F (mixture of isomers) [Example 5-5, 2-[((S)-Pyrrolidin-3-yl-(2,4,6-trifluorophenoxy)methyl]thiazole] | ≧7.0 | ≧7.0 |  | 
Cc1cc(Cl)cnc1O[C@@H](c1ccccc1)[C@H]1CCNC1 [Example 13] |  |  | ≤ 100 | ≤ 100
COc1ccc(O[C@@H](c2ccccc2)[C@H]2CCNC2)cn1.O=C(O)C(F)(F)F [15-31] | ≧5.0 | ≧7.0 |  | 
Fc1nc(OC(c2ccccc2)C2CCNC2)c(F)c(F)c1F (centres unmarked) [14-42] | ≧5.0 | ≧5.0 |  | 
FC(F)(F)c1ccc(O[C@@H](c2ccccc2)[C@H]2CCNC2)nc1.O=C(O)C(F)(F)F [14-23] | ≧5.0 | ≧7.0 |  | 
Cc1cc(Cl)ccc1O[C@@H](c1ccco1)[C@H]1CCNC1 [Example 8-2, (S)-3-[(R)-(4-Chloro-2-methylphenoxy)furan-2-yl-methyl]pyrrolidine] |  |  | ≤ 10000 | ≤ 10000
CCc1cc(F)cc(F)c1O[C@H](c1cncc(F)c1)[C@@H]1CCNC1 [Example 2-57, 3-[(R)-(2-Ethy1-4,6-difluorophenoxy)-(S)-pyrrolidin-3-yl-methyl]-5-fluoropyridine] | ≧7.0 | ≧7.0 |  | 
Fc1cncc([C@H](Oc2cccc3ccccc23)[C@H]2CCNC2)c1.O=C(O)C(F)(F)F [19-2] | ≧7.0 | ≧7.0 |  | 
Fc1ccc(O[C@H](c2cccnc2)[C@H]2CCNC2)c(F)c1 [Example 2-71, 3-[(S)-(2,4-Difluorophenoxy)-(S)-pyrrolidin-3-yl-methyl]pyridine] |  |  | ≤ 100 | ≤ 100
Fc1cc(F)c(Cl)c(O[C@H](c2ncco2)[C@H]2CCNC2)c1Cl [6-10] |  |  | ≤ 10000 | ≤ 100
Fc1cc(F)c(Cl)c(O[C@@H](c2ncco2)[C@H]2CCNC2)c1Cl.O=C(O)C(F)(F)F [6-9] | ≧7.0 | ≧5.0 |  | 
Fc1ccc(O[C@@H](c2ncco2)[C@H]2CCNC2)c(Cl)c1.O=C(O)C(F)(F)F [6-22] | ≧7.0 | ≧5.0 |  | 
Clc1cccc(Cl)c1O[C@H](c1ccncc1)[C@H]1CCNC1 [Example 3-5, 4-[(S)-(2,6-Dichlorophenoxy)-(S)-pyrrolidin-3-yl-methyl]pyridine] |  |  | ≤ 100 | ≤ 100
Clc1cncc(C(Oc2cc(Cl)c(Cl)cc2Cl)C2CCNC2)c1 [Example 2-1, 3-Chloro-5-[(R)-(S)-pyrrolidin-3-y1-(2,4,5-trichlorophenoxy)methyl]pyridine] |  |  | ≤ 10000 | ≤ 100
Cc1c(F)c(F)nc(O[C@@H](c2ccccc2)[C@H]2CCNC2)c1F.O=C(O)C(F)(F)F [14-4] | ≧5.0 | ≧7.0 |  | 
Fc1cc(F)c(O[C@H](c2cccnc2)[C@H]2CCNC2)c(F)c1 [Example 2-69, 3-[(S)-(S)-Pyrrolidin-3-yl-(2,4,6-trifluorophenoxy)methyl]pyridine] |  |  | ≤ 100 | ≤ 100
Fc1ccc(F)c(O[C@H](c2cncc(Cl)c2)[C@H]2CCNC2)c1Cl [Example 2-7, 3-Chloro-5-[(S)-(2-chloro-3,6-difluorophenoxy)-(S)-pyrrolidin-3-yl-methyl]-pyridine] |  |  | ≤ 10000 | ≤ 100
Fc1ccc(O[C@@H](c2ccccc2)[C@H]2CCNC2)nc1.O=C(O)C(F)(F)F [14-29] | ≧7.0 | ≧7.0 |  | 

SMILES | NET pKi [1] | SERT pKi [2] | Ki [1] [nM] | Ki [2] [nM]
Cc1cc(Cl)ccc1O[C@H](c1cncc(F)c1)[C@H]1CCNC1 [Example 2-61, 3-[(S)-(4-Chloro-2-methylphenoxy)-(S)-pyrrolidin-3-yl-methyl]-5-fluoropyridine] |  |  | ≤ 10000 | ≤ 100
O=C(O)C(F)(F)F.c1ccc2cc(O[C@@H](c3ncco3)[C@H]3CCNC3)ccc2c1 [20-1] | ≧7.0 | ≧7.0 |  | 
Cc1cc(Cl)ccc1O[C@@H](c1nccs1)[C@H]1CCNC1 [Example 5-22] | ≧7.0 | ≧7.0 |  | 
Fc1cc(F)c(F)c(O[C@@H](c2nccs2)[C@H]2CCNC2)c1F [Example 5-3] | ≧5.0 | ≧5.0 |  | 
Clc1cc(Cl)c(O[C@@H](c2ncco2)[C@H]2CCNC2)cc1Cl [6-1] |  |  | ≤ 100 | ≤ 100
O=C(O)C(F)(F)F.c1ccc(COc2ccccc2O[C@@H](c2ncco2)[C@H]2CCNC2)cc1 [6-36] | ≧7.0 | ≧5.0 |  | 
CCOc1ccccc1O[C@@H](c1ncco1)[C@H]1CCNC1.O=C(O)C(F)(F)F [6-38] | ≧7.0 | ≧5.0 |  | 
Clc1cccc(Cl)c1O[C@H](c1cccnc1)[C@H]1CCNC1 [Example 2-73, 3-[(S)-(2,6-Dichlorophenoxy)-(S)-pyrrolidin-3-yl-methyl]pyridine] |  |  | ≤ 100 | ≤ 100
Cc1cnc(O[C@@H](c2ccccc2)[C@H]2CCNC2)c(Br)c1.O=C(O)C(F)(F)F [14-31] | ≧7.0 | ≧7.0 |  | 
Fc1cncc(C(Oc2c(F)ccc(F)c2Cl)C2CCNC2)c1 [Example 2-50, 3-[(S)-(2-Chloro-3,6-difluorophenoxy)-(S)-pyrrolidin-3-yl-methy1]-5-fluoropyridine] |  |  | ≤ 10000 | ≤ 100
Fc1cccc(O[C@@H](c2ccccc2)[C@H]2CCNC2)n1.O=C(O)C(F)(F)F [14-10] | ≧7.0 | ≧5.0 |  | 
COc1cc(Cl)ccc1O[C@@H](c1cncc(F)c1)[C@H]1CCNC1 [Example 1] |  |  | ≤ 100 | ≤ 100
Cc1ccc(F)c(OC(c2nccs2)C2CCNC2)c1Cl [Example 5-18, 2-[(R)-(2-Chloro-6-fluoro-3-methylphenoxy)-((S)-pyrrolidin-3-yl-methyl]thiazole] |  |  | ≤ 100 | ≤ 100
Fc1cccnc1O[C@H](c1ccccc1)[C@@H]1CCNC1.O=C(O)C(F)(F)F [14-35] | ≧7.0 | ≧5.0 |  | 
Cc1nc(O[C@@H](c2ccccc2)[C@H]2CCNC2)c(Br)cc1Br.O=C(O)C(F)(F)F [14-12] | ≧7.0 | ≧7.0 |  | 
CCc1cc(F)ccc1O[C@H](c1cncc(F)c1)[C@@H]1CCNC1 [Example 2-58, 3-[(R)-(2-Ethy1-4-fluorophenoxy)-(S)-pyrrolidin-3-yl-methyl]-5-fluoropyridine] | ≧7.0 | ≧7.0 |  | 
Clc1cc(Cl)cc(O[C@@H](c2cncnc2)[C@H]2CCNC2)c1.O=C(O)C(F)(F)F [12-5] | ≧5.0 | ≧7.0 |  | 
Cc1cc(Br)cnc1O[C@@H](c1ccccc1)[C@H]1CCNC1.O=C(O)C(F)(F)F [14-21] | ≧7.0 | ≧7.0 |  | 
Clc1cc(Cl)cc(O[C@H](c2ccco2)[C@H]2CCNC2)c1 [Example 8-4, (S)-3-[(S)-(3,5-Dichlorophenoxy)furan-2-yl-methyl]pyrrolidine] |  |  | ≤ 100 | ≤ 100
FC(F)(F)Oc1cccc(C(Oc2cccc3ccccc23)C2CCNC2)c1 (centres unmarked) [21-7] |  |  | ≤ 10000 | ≤ 100
Clc1cccc(C(Oc2cccc3ccccc23)C2CCNC2)c1 (centres unmarked) [21-5] |  |  | ≤ 100 | ≤ 100
Cc1c(Cl)cccc1O[C@@H](c1ncco1)[C@H]1CCNC1.O=C(O)C(F)(F)F [6-50] | ≧7.0 | ≧7.0 |  | 
COC(=O)c1cc(Cl)ccc1O[C@@H](c1ncco1)[C@H]1CCNC1.O=C(O)C(F)(F)F [6-29] | ≧7.0 | ≧7.0 |  | 
